# In US10681912B2, “Dispersion solution containing antibacterial ultrafine metal particles and method of producing the same” (TOYO SEIKAN GROUP HOLDINGS, LTD., priority 2013, dated 2020):
# Experiment: SP values (solubility parameter)
# Type: physicochemical
# Settings: δ=(E/V)^1/2
# Excerpt: The SP value has the same meaning as the solubility parameter, and serves as a rough indication of mixing property between the liquids. If the cohesive energy is denoted by E and the molar volume by V, then the SP value δ is given by δ=(E/V)^1/2.
structure (smiles),measurement,value
CC(=O)CC(C)C [Methylisobutyl ketone],SP Value,8.7
